The text below walks through data of patent US11318214B2, “Iron oxide mesoporous microparticle drug carrier” (National Guard Health Affairs, priority 2020, dated 2022).

Series [1] in a line: In vitro drug release in PBS buffer at two pH values. Format: physicochemical. To be noted: from IO-MMM, slightly acidic pH of 4.5, after 48 h, 37° C. On the procedure: In a typical study, 5 mg of drug@IO-MMMs were suspended in 1 mL PBS buffer at two different pH values (pH=7.4 and pH=4.5) and gently rotated at 37° C. in an oven provided with a precise control in the temperature within 0.01° C. The concentration of drugs in the supernatant was determined at fixed time intervals by UV-vis spectroscopy. At specific time points, supernatant aliquots obtained by centrifugation were taken from each tube, measured and returned to their respective tubes after UV-vis measurements. The drug concentration could be directly calculated from the measured absorbance. Triplicate aliquots were run for each time interval, and average values plotted. The percent drug release was calculated using the equation below: % Drug Release=(Abs(t) of released drug/Abs(t0))×100.

Series [2] can be described thus: Drug loading onto IO-MMMs (UV-vis). To be noted: for amount of drug loaded / loading efficiency: maximal loading onto IO-MMMs; for loading efficiency: absorption spectroscopy. Format: physicochemical. As to the method: 1 mL aqueous dispersion of IO-MMMs (1.0 mg/mL) and aqueous drug solutions (250 μg/mL) were gently shaken on a rotary shaker for 36 h to enable maximal drug loading. The particle dispersions were then isolated via centrifugation (4500 rpm, 10 min), washed repeatedly with water until no drug was detected in the supernatant by UV-vis, and finally redispersed in water to form stable aqueous dispersions of drug@IO-MMMs. In case of Tam and Daun loading, Tam was first loaded followed by Daun to afford Daun/Tam@IO-MMMs (165 μg/mL Tam; 235 μg/mL Daun). Loading efficiencies were determined by UV-Vis spectroscopy as depicted below. […] The loading efficiency was calculated as: Loading Efficiency=(W1/W0)×100, where W1 is the amount of drug loaded onto the particles, and W0 is the amount of drug in the initial solution. The amount of drug loaded onto IO-MMMs was calculated from the difference between the initial drug concentration and the drug concentration left in the supernatant.

For series [3] the following is noted: estimated; cited from earlier work.

`COc1cccc2c1C(=O)c1c(O)c3c(c(O)c1C2=O)C[C@@](O)(C(C)=O)C[C@@H]3O[C@H]1C[C@H](N)[C@H](O)[C@H](C)O1` [Daun, Daunorubicin]: in series [1], the total drug released is reported as roughly 50%. Besides, in series [2], the “amount of drug loaded” value is ≤ 235 μg/mg of particles and the loading efficiency is on record as no more than 94%.
Regarding `COc1cccc2c1C(=O)c1c(O)c3c(c(O)c1C2=O)C[C@@](O)(C(=O)CO)C[C@@H]3O[C@H]1C[C@H](N)[C@H](O)[C@H](C)O1` [Dox, Doxorubicin], the total drug released result in series [1] is listed as “about 40%”. For the same compound, in series [2], the “amount of drug loaded” value is ≤ 227 μg/mg of particles. Besides, the molecular size in series [3] is on record as roughly 1.37 nm.
`CC/C(=C(\c1ccccc1)c1ccc(OCCN(C)C)cc1)c1ccccc1` [Tam, Tamoxifen]: in series [1], the total drug released is roughly 80%. Moreover, in series [2], the “amount of drug loaded” value is on record as ≤ 165 μg/mg of particles and the loading efficiency is no more than 83%. In series [2] (onto IO-MMMs), the “loading efficiencies depending on the initial drug concentrations used” value is listed as 66-83%.
